Some test systems named below: NCI-H460 lung; RPMI-8226 leukemia; TK-10 renal; UO-31 renal; HCC-2998 colon; HCT-116 colon; IGROV1 ovarian; K-562 leukemia; A549 NSCLC; MDA-MB-435; SNB-19 CNS.
Experiment in all cases: NCI tumour cell line growth inhibition, 48 h

The structures appear in SMILES notation.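 Step 1: Grow cells in 96-well plates. Step 2: Expose to compound for 48 hours at 5 concentrations. Step 3: Interpolate endpoints linearly; if unreached, use highest concentration. Definition used: TGI = concentration required for complete inhibition of growth.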

On to `CNC(=O)C(C)NC(=O)C(Cc1ccccc1)NC(=O)OC(C)(C)C` (centres undefined), for which the TGI in the test on NCI-H460 lung, in the test on RPMI-8226 leukemia, in the test on TK-10 renal, with UO-31 renal, in the test with HCC-2998 colon and in the test on HCT-116 colon was greater than 100 µM throughout. Moreover, the TGI in the test on IGROV1 ovarian, in the test with K-562 leukemia, with A549 NSCLC, with MDA-MB-435 and with SNB-19 CNS was greater than 100 µM each time.
Consider `CCCOc1ccc(/C=C/C2=[N+](CCO)CCO2)cc1`, for which the TGI in the test on NCI-H460 lung, in the test on RPMI-8226 leukemia, in the test with TK-10 renal, in the test on UO-31 renal, with HCC-2998 colon and in the test on HCT-116 colon was greater than 100 µM throughout. The TGI with IGROV1 ovarian, with K-562 leukemia, with A549 NSCLC, with MDA-MB-435 and in the test on SNB-19 CNS was greater than 100 µM in each case.
Take `CC1(C)C[C@H]2C3=CC[C@@H]4[C@@]5(C)CC[C@H](O)C(C)(C)[C@@H]5CC[C@@]4(C)[C@]3(C)C[C@@H](O)[C@@]23C[C@@H]1OC3=O`: the TGI in the test on NCI-H460 lung, in the test on RPMI-8226 leukemia, with TK-10 renal, in the test with UO-31 renal, in the test on HCC-2998 colon and in the test on HCT-116 colon was greater than 100 µM in each case. The TGI in the test on IGROV1 ovarian, in the test on K-562 leukemia, with A549 NSCLC, in the test on MDA-MB-435 and in the test with SNB-19 CNS was greater than 100 µM each time.
Turning to `COc1c(C(=O)O)cccc1-c1cccc(C(=O)NCCN(CCNC(=O)c2cccc(-c3cccc(C(=O)O)c3OC)c2OC)CCNC(=O)c2cccc(-c3cccc(C(=O)O)c3OC)c2OC)c1OC`, the TGI is greater than 100 µM in the test on NCI-H460 lung; 65.2 µM in the test with RPMI-8226 leukemia; greater than 100 µM in the test on TK-10 renal; greater than 100 µM in the test with UO-31 renal; 79 µM in the test on HCC-2998 colon; greater than 100 µM in the test on HCT-116 colon. For the same compound, the TGI with IGROV1 ovarian was greater than 100 µM; in the test on K-562 leukemia, greater than 100 µM; in the test with A549 NSCLC, greater than 100 µM; in the test on MDA-MB-435 it was 34.3 µM; in the test with SNB-19 CNS, greater than 100 µM.

The values are drawn from PubChem BioAssay (NCI).
